Reference: patent US12077503B2, “Substituted cyclic amides and their use as herbicides” (FMC CORPORATION, priority 2015, dated 2024)

Key:
Assay type in all cases: in vivo
Kochia (Kochia scoparia) = test: Test A preemergence; settings: Bassia scoparia, pre-emergence, 240 h, preemergence, 0 to 100 scale where 0 is no effect and 100 is complete control, read-out: Kochia plant response rating; for pest or weed control at 125 g/ha: 125 g ai/ha, approx. 10 d; for pest or weed control at 500 g/ha: 500 g ai/ha
Outline: (§1)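 Seeds sprayed preemergence with a directed soil spray, or plants at 2 to 10 cm height and one- to two-leaf stage sprayed postemergence, with test chemicals in a non-phytotoxic solvent mixture containing surfactant, in loam soil–sand blend. Injury rated visually against untreated controls after about 10 d in greenhouse, 0 (no effect) to 100 (complete control).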

[1] = system: ragweed (common ragweed, Ambrosia elatior); test: Test A preemergence; settings: Ambrosia artemisiifolia, pre-emergence, 240 h, preemergence, 0 to 100 scale where 0 is no effect and 100 is complete control, read-out: Ragweed plant response rating; for pest or weed control at 125 g/ha: 125 g ai/ha, approx. 10 d; for pest or weed control at 500 g/ha: 500 g ai/ha
Outline: as §1

[2] = system: pigweed (Amaranthus retroflexus); test: Test A preemergence; settings: Amaranthus retroflexus, pre-emergence, 240 h, preemergence, 0 to 100 scale where 0 is no effect and 100 is complete control, read-out: Pigweed plant response rating; for pest or weed control at 125 g/ha: 125 g ai/ha, approx. 10 d; for pest or weed control at 500 g/ha: 500 g ai/ha
[3] = system: ryegrass, Italian (Italian ryegrass, Lolium multiflorum); test: Test A preemergence; settings: Lolium multiflorum, pre-emergence, 240 h, preemergence, 0 to 100 scale where 0 is no effect and 100 is complete control, read-out: Ryegrass, Italian plant response rating; for pest or weed control at 125 g/ha: 125 g ai/ha, approx. 10 d; for pest or weed control at 500 g/ha: 500 g ai/ha
Outline: as §1

[4] = system: giant foxtail (Setaria faberii); test: Test A preemergence; settings: Setaria faberi, pre-emergence, 240 h, preemergence, 0 to 100 scale where 0 is no effect and 100 is complete control, read-out: Foxtail, Giant plant response rating; for pest or weed control at 125 g/ha: 125 g ai/ha, approx. 10 d; for pest or weed control at 500 g/ha: 500 g ai/ha
Outline: as §1

[5] = system: barnyardgrass (Echinochloa crus-galli); test: Test A preemergence; settings: Echinochloa crus-galli, pre-emergence, 240 h, preemergence, 0 to 100 scale where 0 is no effect and 100 is complete control, read-out: Barnyardgrass plant response rating; for pest or weed control at 125 g/ha: 125 g ai/ha, approx. 10 d; for pest or weed control at 500 g/ha: 500 g ai/ha
Outline: as §1

[6] = system: blackgrass (Alopecurus myosuroides); test: Test A postemergence; settings: Alopecurus myosuroides, post-emergence, 240 h, postemergence; for pest or weed control at 125 g/ha: 125 g ai/ha, visual injury vs untreated controls after approx. 10 d, 0 = no effect, 100 = complete control, read-out: Blackgrass plant response rating (0 to 100 scale); for pest or weed control at 500 g/ha: 500 g ai/ha, 0 to 100 scale, 0 is no effect, 100 is complete control, read-out: Blackgrass plant response rating
Outline: as §1

[7] = system: ragweed (common ragweed, Ambrosia elatior); test: Test A postemergence; settings: Ambrosia artemisiifolia, post-emergence, 240 h, postemergence; for pest or weed control at 125 g/ha: 125 g ai/ha, visual injury vs untreated controls after approx. 10 d, 0 = no effect, 100 = complete control, read-out: Ragweed plant response rating (0 to 100 scale); for pest or weed control at 500 g/ha: 500 g ai/ha, 0 to 100 scale, 0 is no effect, 100 is complete control, read-out: Ragweed plant response rating
Outline: as §1

[8] = system: pigweed (Amaranthus retroflexus); test: Test A postemergence; settings: Amaranthus retroflexus, post-emergence, 240 h, postemergence; for pest or weed control at 125 g/ha: 125 g ai/ha, visual injury vs untreated controls after approx. 10 d, 0 = no effect, 100 = complete control, read-out: Pigweed plant response rating (0 to 100 scale); for pest or weed control at 500 g/ha: 500 g ai/ha, 0 to 100 scale, 0 is no effect, 100 is complete control, read-out: Pigweed plant response rating
Outline: as §1

[9] = system: wheat (Triticum aestivum); test: Test A postemergence; settings: Triticum aestivum, post-emergence, 240 h, postemergence; for plant injury at 125 g/ha: 125 g ai/ha, visual injury vs untreated controls after approx. 10 d, 0 = no effect, 100 = complete control, read-out: Wheat plant response rating (0 to 100 scale); for plant injury at 500 g/ha: 500 g ai/ha, 0 to 100 scale, 0 is no effect, 100 is complete control, read-out: Wheat plant response rating
Outline: as §1

[10] = system: ryegrass, Italian (Italian ryegrass, Lolium multiflorum); test: Test A postemergence; settings: Lolium multiflorum, post-emergence, 240 h, postemergence; for pest or weed control at 125 g/ha: 125 g ai/ha, visual injury vs untreated controls after approx. 10 d, 0 = no effect, 100 = complete control, read-out: Ryegrass, Italian plant response rating (0 to 100 scale); for pest or weed control at 500 g/ha: 500 g ai/ha, 0 to 100 scale, 0 is no effect, 100 is complete control, read-out: Ryegrass, Italian plant response rating
Outline: as §1

[11] = system: giant foxtail (Setaria faberii); test: Test A postemergence; settings: Setaria faberi, post-emergence, 240 h, postemergence; for pest or weed control at 125 g/ha: 125 g ai/ha, visual injury vs untreated controls after approx. 10 d, 0 = no effect, 100 = complete control, read-out: Foxtail, Giant plant response rating (0 to 100 scale); for pest or weed control at 500 g/ha: 500 g ai/ha, 0 to 100 scale, 0 is no effect, 100 is complete control, read-out: Foxtail, Giant plant response rating
Outline: as §1

[12] = system: Galium (catchweed bedstraw, Galium aparine); test: Test A postemergence; settings: Galium, post-emergence, 240 h, postemergence; for pest or weed control at 125 g/ha: 125 g ai/ha, visual injury vs untreated controls after approx. 10 d, 0 = no effect, 100 = complete control, read-out: Galium plant response rating (0 to 100 scale); for pest or weed control at 500 g/ha: 500 g ai/ha, 0 to 100 scale, 0 is no effect, 100 is complete control, read-out: Galium plant response rating
Outline: as §1

[13] = system: barnyardgrass (Echinochloa crus-galli); test: Test A postemergence; settings: Echinochloa crus-galli, post-emergence, 240 h, postemergence; for pest or weed control at 125 g/ha: 125 g ai/ha, visual injury vs untreated controls after approx. 10 d, 0 = no effect, 100 = complete control, read-out: Barnyardgrass plant response rating (0 to 100 scale); for pest or weed control at 500 g/ha: 500 g ai/ha, 0 to 100 scale, 0 is no effect, 100 is complete control, read-out: Barnyardgrass plant response rating
Outline: as §1

corn (Zea mays) = test: Test A postemergence; settings: Zea mays, post-emergence, 240 h, postemergence; for plant injury at 125 g/ha: 125 g ai/ha, visual injury vs untreated controls after approx. 10 d, 0 = no effect, 100 = complete control, read-out: Corn plant response rating (0 to 100 scale); for plant injury at 500 g/ha: 500 g ai/ha, 0 to 100 scale, 0 is no effect, 100 is complete control, read-out: Corn plant response rating
Outline: as §1

Cc1nc([C@H]2CNC(=O)[C@@H]2C(=O)Nc2ccccc2F)cs1 [Compound 1179]
0%: pest or weed control at 125 g/ha (Kochia (Kochia scoparia)) | pest or weed control at 500 g/ha (Kochia (Kochia scoparia)) | pest or weed control at 125 g/ha [1] | pest or weed control at 500 g/ha [1] | pest or weed control at 125 g/ha [2] | pest or weed control at 500 g/ha [2] | pest or weed control at 125 g/ha [3] | pest or weed control at 500 g/ha [3] | pest or weed control at 125 g/ha [4] | pest or weed control at 500 g/ha [4] | pest or weed control at 125 g/ha [5] | pest or weed control at 500 g/ha [5] | pest or weed control at 125 g/ha [6] | pest or weed control at 500 g/ha [6] | pest or weed control at 125 g/ha [7] | pest or weed control at 500 g/ha [7] | pest or weed control at 125 g/ha [8] | pest or weed control at 500 g/ha [8] | plant injury at 125 g/ha [9] | plant injury at 500 g/ha [9] | pest or weed control at 125 g/ha [10] | pest or weed control at 500 g/ha [10] | pest or weed control at 125 g/ha [11] | pest or weed control at 500 g/ha [11] | pest or weed control at 125 g/ha [12] | pest or weed control at 500 g/ha [12] | pest or weed control at 125 g/ha [13] | pest or weed control at 500 g/ha [13] | plant injury at 125 g/ha (corn (Zea mays)) | plant injury at 500 g/ha (corn (Zea mays))

O=C1NC[C@H](c2nccs2)[C@H]1C(=O)Nc1ccccc1F [Compound 1181]
0%: pest or weed control at 125 g/ha (Kochia (Kochia scoparia)) | pest or weed control at 500 g/ha (Kochia (Kochia scoparia)) | pest or weed control at 125 g/ha [1] | pest or weed control at 500 g/ha [1] | pest or weed control at 125 g/ha [2] | pest or weed control at 500 g/ha [2] | pest or weed control at 125 g/ha [3] | pest or weed control at 500 g/ha [3] | pest or weed control at 125 g/ha [4] | pest or weed control at 500 g/ha [4] | pest or weed control at 125 g/ha [5] | pest or weed control at 500 g/ha [5] | pest or weed control at 125 g/ha [6] | pest or weed control at 500 g/ha [6] | pest or weed control at 125 g/ha [7] | pest or weed control at 500 g/ha [7] | pest or weed control at 125 g/ha [8] | pest or weed control at 500 g/ha [8] | plant injury at 125 g/ha [9] | plant injury at 500 g/ha [9] | pest or weed control at 125 g/ha [10] | pest or weed control at 500 g/ha [10] | pest or weed control at 125 g/ha [11] | pest or weed control at 500 g/ha [11] | pest or weed control at 125 g/ha [12] | pest or weed control at 500 g/ha [12] | pest or weed control at 125 g/ha [13] | pest or weed control at 500 g/ha [13] | plant injury at 125 g/ha (corn (Zea mays)) | plant injury at 500 g/ha (corn (Zea mays))
